This note sets out measurements from patent US20230192700A1, “PYRAZOLOPYRAZINES ACTING ON CANCERS VIA INHIBITION OF CDK12” (Bayer Aktiengesellschaft, priority 2020, published 2023).

In assay [1] the test system is CAL-120 human breast adenocarcinoma cells. The assay is described as follows: Proliferation assay CAL-120 (crystal violet). To be noted: Homo sapiens, CAL-120, 96 h, CAL-120 cells, 4 days, median, read-out: Prolif-CAL-120— IC50 - [mol/l] (median). Type of assay: cell-based. As for the experimental part:
4. Proliferation assay: MDA-MB-231, CAL-120
Human tumour cells were originally obtained from the American Type Culture Collection (ATCC), or from the Deutsche Sammlung von Mikroorganismen and Zellkulturen (DSMZ, German Collection of Microorganisms and Cell Cultures). Cultivated tumour cells (CAL-120, human breast adenocarcinoma cells, DSMZ ACC-459; MDA-M B-231, human breast cancer cells, ATCC HTB-26) were plated at a density of 4,000 cells/well in a 96-well multititer plate in 200 microL of their respective growth medium supplemented 10% fetal calf serum. After 24 hours, the cells of one plate (zero-point plate) were stained with crystal violet (see below), while the medium of the other plates was supplemented with the test substances in various concentrations (0 micromol/L, as well as in the range of 0.01-10 micromol/L; the final concentration of the solvent dimethyl sulfoxide was adjusted to 0.1%) using a Tecan HP D300 Digital Dispenser. The cells were incubated for 4 days in the presence of test substances. Cell proliferation was determined by staining the cells with crystal violet: the cells were fixed by adding 20 microL/measuring point of an 11% glutaric aldehyde solution for 15 minutes at room temperature. After three washing cycles of the fixed cells with water, the plates were dried at room temperature. The cells were stained by adding 100 microL/measuring point of a 0.1% crystal violet solution (pH 3.0). After three washing cycles of the stained cells with water, the plates were dried at room temperature. The dye was dissolved by adding 100 microL/measuring point of a 10% acetic acid solution. The extinction was determined by photometry at a wavelength of 595 nm. The change of cell number, in percent, was calculated by normalization of the measured values to the extinction values of the zero-point plate(=0%) and the extinction of the untreated (0 μM) cells(=100%). The IC50 values (inhibitory concentration at 50% of maximal effect) were determined by means of a 4 parameter fit.

The target in another assay is T1, CYCLIN K (Homo sapiens, UniProt O75909).
T1 construct: endogenous in cells; host or cells: CAL-120 human breast cancer cells (DSMZ ACC 459)
T1 sequence (O75909 whole entry): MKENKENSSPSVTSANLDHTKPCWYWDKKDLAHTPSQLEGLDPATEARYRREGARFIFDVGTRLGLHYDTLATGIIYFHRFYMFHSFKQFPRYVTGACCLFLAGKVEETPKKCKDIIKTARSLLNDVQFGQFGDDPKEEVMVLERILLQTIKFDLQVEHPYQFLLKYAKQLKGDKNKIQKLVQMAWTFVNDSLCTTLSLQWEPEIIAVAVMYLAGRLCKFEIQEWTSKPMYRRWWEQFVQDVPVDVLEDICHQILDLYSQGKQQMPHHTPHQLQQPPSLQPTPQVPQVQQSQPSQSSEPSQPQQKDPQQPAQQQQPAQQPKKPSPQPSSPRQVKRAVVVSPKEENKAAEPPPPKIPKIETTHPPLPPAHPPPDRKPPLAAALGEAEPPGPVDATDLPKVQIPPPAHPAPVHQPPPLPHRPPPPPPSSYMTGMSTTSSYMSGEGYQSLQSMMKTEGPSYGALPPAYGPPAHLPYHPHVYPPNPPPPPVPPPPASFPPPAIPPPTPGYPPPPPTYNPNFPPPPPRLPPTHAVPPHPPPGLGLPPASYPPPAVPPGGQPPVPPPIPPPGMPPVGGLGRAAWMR
T1 sequence (Q9NYV4 whole entry partner): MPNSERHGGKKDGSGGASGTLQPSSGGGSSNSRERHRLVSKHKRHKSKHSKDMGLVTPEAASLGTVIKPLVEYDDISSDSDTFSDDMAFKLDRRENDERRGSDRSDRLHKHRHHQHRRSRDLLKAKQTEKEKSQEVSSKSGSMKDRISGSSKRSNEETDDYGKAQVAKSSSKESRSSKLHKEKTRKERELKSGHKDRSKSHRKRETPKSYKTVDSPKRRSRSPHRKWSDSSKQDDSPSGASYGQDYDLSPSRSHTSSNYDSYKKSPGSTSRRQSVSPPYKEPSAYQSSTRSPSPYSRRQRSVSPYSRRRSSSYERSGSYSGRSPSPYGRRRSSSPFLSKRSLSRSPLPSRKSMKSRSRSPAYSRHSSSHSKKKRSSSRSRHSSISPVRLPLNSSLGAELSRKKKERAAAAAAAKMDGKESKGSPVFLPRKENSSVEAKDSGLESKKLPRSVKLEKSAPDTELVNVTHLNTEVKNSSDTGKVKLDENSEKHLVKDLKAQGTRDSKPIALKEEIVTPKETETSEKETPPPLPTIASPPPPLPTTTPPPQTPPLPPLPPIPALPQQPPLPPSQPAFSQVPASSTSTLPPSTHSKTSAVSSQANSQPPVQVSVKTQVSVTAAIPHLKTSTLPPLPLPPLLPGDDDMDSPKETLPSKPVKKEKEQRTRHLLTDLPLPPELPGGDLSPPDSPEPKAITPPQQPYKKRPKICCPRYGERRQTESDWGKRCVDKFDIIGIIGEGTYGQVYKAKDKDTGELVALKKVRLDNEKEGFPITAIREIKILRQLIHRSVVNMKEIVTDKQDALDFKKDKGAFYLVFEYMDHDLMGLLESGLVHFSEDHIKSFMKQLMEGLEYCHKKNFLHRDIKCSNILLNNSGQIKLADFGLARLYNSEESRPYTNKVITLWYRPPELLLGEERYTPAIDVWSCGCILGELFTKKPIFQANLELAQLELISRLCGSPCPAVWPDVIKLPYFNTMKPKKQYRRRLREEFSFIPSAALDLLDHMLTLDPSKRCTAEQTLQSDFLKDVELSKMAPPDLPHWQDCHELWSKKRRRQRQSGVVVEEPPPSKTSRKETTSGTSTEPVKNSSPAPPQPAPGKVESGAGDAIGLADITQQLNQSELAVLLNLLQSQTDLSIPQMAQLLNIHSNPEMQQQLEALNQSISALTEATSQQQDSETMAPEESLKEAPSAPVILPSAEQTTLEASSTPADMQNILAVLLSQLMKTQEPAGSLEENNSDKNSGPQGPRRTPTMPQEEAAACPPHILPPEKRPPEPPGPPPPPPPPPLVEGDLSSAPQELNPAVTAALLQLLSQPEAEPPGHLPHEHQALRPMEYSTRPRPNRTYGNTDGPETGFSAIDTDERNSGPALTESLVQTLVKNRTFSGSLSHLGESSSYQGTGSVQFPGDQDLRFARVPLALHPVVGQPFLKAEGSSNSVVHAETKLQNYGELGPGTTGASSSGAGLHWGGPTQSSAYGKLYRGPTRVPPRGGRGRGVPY
The assay is described as follows: CYCLIN K nuclear protein level: immunofluorescence/high content analysis in CAL-120 cells. Type of assay: cell-based. To be noted: 24 h, nuclear CCNK staining intensity, median, read-out: CYCLIN K degradation IF, DC50- [mol/l] (median). As for the experimental part: 7. CYCLIN K Nuclear Protein Level: Immunofluorescence/High Content Analysis
In the context of the present invention, the term “DC50 Cyclin K” refers to the DC50 values obtained according to the assay described in this section (7) herein below, i.e. the DC50 values for the degradation of Cyclin K.
CAL-120 human breast cancer cells (DSMZ ACC 459) are seeded in 1536-well microtiter plates (800 cells per well) containing 50 nanoL of compounds in Dose-Response. Control wells received DMSO or Reference Example 1. Plates are then incubated for 24 h at 37° C. in an humidified incubator and fixed with 4% PFA for 10 min. Then immunofluorescence (IF) against CYCLIN K (ThermoFisher Scientific CCNK Antibody # PA5-85020, rabbit, 1:200 dilution) is performed using standard IF protocols. Cells are then stained with Hoechst 33342 (Life Technologies, H-1399, 0.1 microg/mL) and imaged on an automated confocal microscopy system (e.g. Perkin Elmer Opera Phenix). Nuclear and cytoplasmic intensity as well as the nuclear/cytoplasmic intensity ratio is determined by automated image analysis using custom generated scripts (MetaXpress). Data is then transferred to Genedata Screener software, normalized to DMSO and control and DC50 values (degrading concentration to achieve 50% reduction of nuclear CCNK staining intensity relative to controls) are reported.

For `c1ccc2[nH]c(CNc3nn(C4CCNCC4)c4nc(C5CC5)cnc34)nc2c1` [Example 12, N-[(1H-benzimidazol-2-yl)methyl]-6-cyclopropyl-1-(piperidin-4-yl)-1H-pyrazolo[3,4-b]pyrazin-3-amine], the IC50 in assay [1] came to 6.49 nM. For the same compound, at CYCLIN K, the DC50 came out at 2.16 nM.
`c1ccc2[nH]c(CNc3nn(C4CCOCC4)c4nc(C5CC5)cnc34)nc2c1` [Example 16, N-[(1H-benzimidazol-2-yl)methyl]-6-cyclopropyl-1-(oxan-4-yl)-1H-pyrazolo[3,4-b]pyrazin-3-amine]: the IC50 in assay [1] was 103 nM. On CYCLIN K, the DC50 is above 677 nM.
Take `CN1CCC(n2nc(NCc3nc4cc(Cl)c(Cl)cc4[nH]3)c3ncc(C4CC4)nc32)CC1` [Example 19, 6-cyclopropyl-N-[(5,6-dichloro-1H-benzimidazol-2-yl)methyl]-1-(1-methylpiperidin-4-yl)-1H-pyrazolo[3,4-b]pyrazin-3-amine]: the IC50 in assay [1] stood at 3.61 nM. Moreover, the DC50 on CYCLIN K was determined as 0.339 nM.
Consider `COc1cccc2[nH]c(CNc3nn(C4CCOCC4)c4nc(C5CC5)cnc34)nc12` [Example 24, 6-cyclopropyl-N-[(4-methoxy-1H-benzimidazol-2-yl)methyl]-1-(oxan-4-yl)-1H-pyrazolo[3,4-b]pyrazin-3-amine], for which, in assay [1], the IC50 amounted to 10 nM. In addition, the DC50 at CYCLIN K was 1.22 nM.
Consider `CN1CCC(n2nc(NCc3nc4cc(C(F)(F)F)ccc4[nH]3)c3ncc(C4CC4)nc32)CC1` [Example 25, 6-cyclopropyl-1-(1-methylpiperidin-4-yl)-N-{[5-(trifluoromethyl)-1H-benzimidazol-2-yl]methyl}-1H-pyrazolo[3,4-b]pyrazin-3-amine], for which the IC50 in assay [1] turned out to be 3.14 nM. In addition, on CYCLIN K, the DC50 was found to be 0.543 nM.
For `Fc1ccc2[nH]c(CNc3nn(C4CCOCC4)c4nc(C5CC5)cnc34)nc2c1F` [Example 32, 6-cyclopropyl-N-[(4,5-difluoro-1H-benzimidazol-2-yl)methyl]-1-(oxan-4-yl)-1H-pyrazolo[3,4-b]pyrazin-3-amine], the IC50 in assay [1] is 2.12 nM. Besides, the DC50 at CYCLIN K came to 0.877 nM.
With `c1ccc2[nH]c(CNc3nn(C4CCCC4)c4nc(C5CC5)cnc34)nc2c1` [Example 39, N-[(1H-benzimidazol-2-yl)methyl]-1-cyclopentyl-6-cyclopropyl-1H-pyrazolo[3,4-b]pyrazin-3-amine], the IC50 in assay [1] came out at 88.8 nM. Moreover, at CYCLIN K, the DC50 was 38.7 nM.
The matching figures for `O[C@H]1C[C@@H](n2nc(NCc3nc4ccccc4[nH]3)c3ncc(C4CC4)nc32)C1` [Example 40, cis-3-(3-{[(1H-benzimidazol-2-yl)methyl]amino}-6-cyclopropyl-1H-pyrazolo[3,4-b]pyrazin-1-yl)cyclobutan-1-ol]: 34.6 nM and 5.35 nM.
In the case of `O[C@H]1C[C@H](n2nc(NCc3nc4ccccc4[nH]3)c3ncc(C4CC4)nc32)C1` [Example 43, trans-3-(3-{[(1H-benzimidazol-2-yl)methyl]amino}-6-cyclopropyl-1H-pyrazolo[3,4-b]pyrazin-1-yl)cyclobutan-1-ol], the IC50 in assay [1] came to 41.9 nM. Further, the DC50 at CYCLIN K amounted to 4.79 nM.
Turning to `c1ccc2[nH]c(CNc3nn(C4C[C@H]5CC[C@@H](C4)O5)c4nc(C5CC5)cnc34)nc2c1` (stereo partly drawn) [Example 45, exo/endo-N-[(1H-benzimidazol-2-yl)methyl]-6-cyclopropyl-1-(8-oxabicyclo[3.2.1]octan-3-yl)-1H-pyrazolo[3,4-b]pyrazin-3-amine], the IC50 in assay [1] came out at 9.86 nM. The DC50 at CYCLIN K amounted to 2.29 nM.
Take `OC[C@H]1C[C@H](n2nc(NCc3nc4ccccc4[nH]3)c3ncc(C4CC4)nc32)C1` [Example 46, [trans-3-(3-{[(1H-benzimidazol-2-yl)methyl]amino}-6-cyclopropyl-1H-pyrazolo[3,4-b]pyrazin-1-yl)cyclobutyl]methanol]: the IC50 in assay [1] is 20.1 nM. Besides, the DC50 at CYCLIN K came to 4.87 nM.
Regarding `OC[C@H]1C[C@@H](n2nc(NCc3nc4ccccc4[nH]3)c3ncc(C4CC4)nc32)C1` [Example 47, [cis-3-(3-{[(1H-benzimidazol-2-yl)methyl]amino}-6-cyclopropyl-1H-pyrazolo[3,4-b]pyrazin-1-yl)cyclobutyl]methanol], the IC50 in assay [1] was found to be 27.5 nM. For the same compound, the DC50 at CYCLIN K was found to be 6.29 nM.
On to `c1ccc2[nH]c(CNc3nn(C4CCC4)c4nc(C5CC5)cnc34)nc2c1` [Example 49, N-[(1H-benzimidazol-2-yl)methyl]-1-cyclobutyl-6-cyclopropyl-1H-pyrazolo[3,4-b]pyrazin-3-amine], for which the IC50 in assay [1] is 122 nM. In addition, on CYCLIN K, the DC50 stood at 25.7 nM.
`O[C@H]1CC[C@H](n2nc(NCc3nc4ccccc4[nH]3)c3ncc(C4CC4)nc32)CC1` [Example 50, trans-4-(3-{[(1H-benzimidazol-2-yl)methyl]amino}-6-cyclopropyl-1H-pyrazolo[3,4-b]pyrazin-1-yl)cyclohexan-1-ol]: in assay [1], the IC50 was 11 nM. Further, the DC50 on CYCLIN K was determined as 3.27 nM.
Turning to `Fc1ccc2[nH]c(CNc3nn(C4CCOCC4)c4nc(C5CC5)cnc34)nc2c1` [Example 53, 6-cyclopropyl-N-[(5-fluoro-1H-benzimidazol-2-yl)methyl]-1-(oxan-4-yl)-1H-pyrazolo[3,4-b]pyrazin-3-amine], in assay [1], the IC50 is 19.7 nM. The DC50 at CYCLIN K was 6.41 nM.
For `COCCn1nc(NCc2nc3ccccc3[nH]2)c2ncc(C3CC3)nc21` [Example 65, N-[(1H-benzimidazol-2-yl)methyl]-6-cyclopropyl-1-(2-methoxyethyl)-1H-pyrazolo[3,4-b]pyrazin-3-amine], the IC50 in assay [1] worked out at 147 nM. In addition, on CYCLIN K, the DC50 came to 37.4 nM.
For `OCCn1nc(NCc2nc3ccccc3[nH]2)c2ncc(C3CC3)nc21` [Example 66, 2-(3-{[(1H-benzimidazol-2-yl)methyl]amino}-6-cyclopropyl-1H-pyrazolo[3,4-b]pyrazin-1-yl)ethan-1-ol], in assay [1], the IC50 was 160 nM. For the same compound, the DC50 on CYCLIN K turned out to be 20.3 nM.
For the compound `COC(C)(C)CCn1nc(NCc2nc3ccccc3[nH]2)c2ncc(C3CC3)nc21` [Example 67, N-[(1H-benzimidazol-2-yl)methyl]-6-cyclopropyl-1-(3-methoxy-3-methylbutyl)-1H-pyrazolo[3,4-b]pyrazin-3-amine], the IC50 in assay [1] is 79.7 nM. In addition, the DC50 on CYCLIN K turned out to be 15.6 nM.
Turning to `CN(C)CCn1nc(NCc2nc3ccccc3[nH]2)c2ncc(C3CC3)nc21` [Example 68, N-[(1H-benzimidazol-2-yl)methyl]-6-cyclopropyl-1-[2-(dimethylamino)ethyl]-1H-pyrazolo[3,4-b]pyrazin-3-amine], the IC50 in assay [1] came out at 266 nM. In addition, at CYCLIN K, the DC50 worked out at 20.7 nM.
Consider `CC(C)(O)Cn1nc(NCc2nc3ccccc3[nH]2)c2ncc(C3CC3)nc21` [Example 69, 1-(3-{[(1H-benzimidazol-2-yl)methyl]amino}-6-cyclopropyl-1H-pyrazolo[3,4-b]pyrazin-1-yl)-2-methylpropan-2-ol], for which, in assay [1], the IC50 was 199 nM. Further, on CYCLIN K, the DC50 turned out to be 34.1 nM.
Turning to `O[C@H]1C[C@H](Cn2nc(NCc3nc4ccccc4[nH]3)c3ncc(C4CC4)nc32)C1` [Example 70, trans-3-[(3-{[(1H-benzimidazol-2-yl)methyl]amino}-6-cyclopropyl-1H-pyrazolo[3,4-b]pyrazin-1-yl)methyl]cyclobutan-1-ol], the IC50 in assay [1] was 71.8 nM. For the same compound, the DC50 on CYCLIN K came to 11.6 nM.
Turning to `O[C@H]1C[C@@H](Cn2nc(NCc3nc4ccccc4[nH]3)c3ncc(C4CC4)nc32)C1` [Example 71, cis-3-[(3-{[(1H-benzimidazol-2-yl)methyl]amino}-6-cyclopropyl-1H-pyrazolo[3,4-b]pyrazin-1-yl)methyl]cyclobutan-1-ol], the IC50 in assay [1] turned out to be 52.4 nM. Moreover, the DC50 at CYCLIN K turned out to be 8.83 nM.
